Read-outs that look alike come from different tables or passages of the source.
Tests used:
Format in all cases: biochemical
PDK1 enzyme = molecular target: T1, PDK1 enzyme (Homo sapiens, UniProt O15530); assay: PDK1 3'-phosphoinositide-dependent kinase assay, phosphorylation of synthetic peptide (33P-ATP filtration); conditions: 0.01 mM ATP, read-out: PDK1 IC50
T1 sequence (O15530 1-556): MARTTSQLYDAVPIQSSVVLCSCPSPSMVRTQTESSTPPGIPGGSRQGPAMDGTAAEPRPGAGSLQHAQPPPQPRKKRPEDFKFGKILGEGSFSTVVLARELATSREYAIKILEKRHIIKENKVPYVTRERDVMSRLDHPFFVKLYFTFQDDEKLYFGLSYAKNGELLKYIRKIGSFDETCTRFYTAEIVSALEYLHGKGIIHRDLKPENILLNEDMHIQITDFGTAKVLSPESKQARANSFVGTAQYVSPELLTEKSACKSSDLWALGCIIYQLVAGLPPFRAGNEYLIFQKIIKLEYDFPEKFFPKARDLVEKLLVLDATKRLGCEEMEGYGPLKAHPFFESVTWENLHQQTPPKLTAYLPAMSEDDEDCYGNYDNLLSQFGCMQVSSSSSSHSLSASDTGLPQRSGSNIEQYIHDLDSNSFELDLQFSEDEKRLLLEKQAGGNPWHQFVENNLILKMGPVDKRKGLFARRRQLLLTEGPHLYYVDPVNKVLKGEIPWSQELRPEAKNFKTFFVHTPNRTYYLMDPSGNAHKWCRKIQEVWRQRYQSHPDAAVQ
How it was run: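 Radiometric peptide phosphorylation by PDK1 with inhibitor, 60 min at 30 °C, using 0.01 mM ATP plus 33P-γ-ATP, 0.075 mM peptide, 7.5 mM Mg acetate in Tris-HCl pH 7.5. Phosphoric acid stopped reaction; phosphorylated peptide captured on filter plates and counted by scintillation.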

[1] = molecular target: CDK2 enzyme, complexed with cyclin A (Homo sapiens, UniProt P24941); assay: CDK2 cyclin dependent kinase assay, phosphorylation of synthetic peptide […] (33P-ATP filtration); conditions: 0.1 mM ATP
Chk1 = molecular target: T2, Chk1 (Homo sapiens, UniProt O14757); assay: Chk1 kinase assay, phosphorylation of Chktide (33P-ATP filtration); conditions: 0.01 mM ATP, read-out: Chk1 IC50
T2 sequence (O14757 1-476): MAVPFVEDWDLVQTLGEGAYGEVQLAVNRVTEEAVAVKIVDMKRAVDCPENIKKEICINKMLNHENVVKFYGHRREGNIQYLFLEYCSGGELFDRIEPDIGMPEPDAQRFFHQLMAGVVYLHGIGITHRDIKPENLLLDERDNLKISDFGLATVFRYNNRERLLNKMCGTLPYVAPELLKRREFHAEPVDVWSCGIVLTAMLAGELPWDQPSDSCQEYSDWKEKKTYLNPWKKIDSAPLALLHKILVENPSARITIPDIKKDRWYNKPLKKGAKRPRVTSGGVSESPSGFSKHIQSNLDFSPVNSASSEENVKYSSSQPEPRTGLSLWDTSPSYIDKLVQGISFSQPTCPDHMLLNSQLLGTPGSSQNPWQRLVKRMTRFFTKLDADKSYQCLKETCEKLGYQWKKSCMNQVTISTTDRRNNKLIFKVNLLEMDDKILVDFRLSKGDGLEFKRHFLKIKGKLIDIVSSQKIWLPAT
How it was run: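 GST-Chk1 (11 nM) with inhibitor, 30 μM Chktide peptide, 0.01 mM ATP plus 33P-γ-ATP in 50 mM Hepes pH 7.5 with 0.1 mg/ml BSA, 40 min at 30° C. Stopped with phosphoric acid; phosphorylated peptide captured on filter plates and scintillation-counted.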

O=S(=O)(c1ccc(Nc2cc(Cl)nc3ncnn23)cc1)C(F)(F)F [Example 64]
IC50 (PDK1 enzyme; Table 2): > 200 µM | IC50 ([1]; Table 2): 155 µM | IC50 (Chk1; Table 2): > 200 µM

Cc1cc(Nc2ccc(S(C)(=O)=O)cc2)n2ncnc2n1 [Example 77]
IC50 (PDK1 enzyme; Table 2): > 200 µM | IC50 ([1]; Table 2): 124 µM | IC50 (Chk1; Table 2): > 200 µM

NS(=O)(=O)c1ccc(Nc2cc(N3CCOCC3)nc3ncnn23)cc1 [Example 24]
IC50 (PDK1 enzyme; Table 1): > 200 µM | IC50 ([1]; Table 1): 15.7 µM | IC50 (Chk1; Table 1): > 200 µM

CS(=O)(=O)c1ccc(Nc2cc(NC3CC3)nc3ncnn23)cc1 [Example 101]
IC50 (PDK1 enzyme; Table 2): > 200 µM | IC50 ([1]; Table 2): 15.1 µM | IC50 (Chk1; Table 2): > 200 µM

NC(=O)c1ccc(Nc2cc(-c3ccccc3)n3ncnc3n2)cc1 [Example 116]
IC50 (PDK1 enzyme; Table 3): 5.11 µM | IC50 ([1]; Table 3): 97.5 µM | IC50 (Chk1; Table 3): 9.82 µM

NS(=O)(=O)c1ccc(Nc2cc(NC3CCCC3)nc3ncnn23)cc1 [Example 11]
IC50 (PDK1 enzyme; Table 1): > 200 µM | IC50 ([1]; Table 1): 0.55 µM | IC50 (Chk1; Table 1): > 200 µM

O=S(=O)(c1ccc(Nc2cc(Cl)nc3ncnn23)cc1)N1CCC(O)CC1 [Example 7]
IC50 (PDK1 enzyme; Table 1): > 200 µM | IC50 ([1]; Table 1): 22.7 µM | IC50 (Chk1; Table 1): > 200 µM

NC(=O)c1ccc(Nc2cc(Cl)nc3ncnn23)cc1 [Example 49]
IC50 (PDK1 enzyme; Table 1): > 200 µM | IC50 ([1]; Table 1): 24.1 µM | IC50 (Chk1; Table 1): > 200 µM

CCN(CC)c1cc(Nc2ccccc2)n2ncnc2n1 [Example 82]
IC50 (PDK1 enzyme; Table 2): > 200 µM | IC50 ([1]; Table 2): 4.66 µM | IC50 (Chk1; Table 2): > 200 µM

COc1cc(Nc2cc(Cl)nc3ncnn23)c(Cl)cc1C(=O)O [Example 90]
IC50 (PDK1 enzyme; Table 2): > 200 µM | IC50 ([1]; Table 2): 102 µM | IC50 (Chk1; Table 2): > 200 µM

COc1ccc(Br)cc1-c1cc(N[C@H]2CC[C@H](O)CC2)n2ncnc2n1 [Example 16]
IC50 (PDK1 enzyme; Table 1): > 200 µM | IC50 ([1]; Table 1): 48 µM | IC50 (Chk1; Table 1): > 200 µM

O=C(O)c1ccc(Nc2cc(-c3cccc(F)c3)n3ncnc3n2)cc1 [Example 132]
IC50 (PDK1 enzyme; Table 3): 36.2 µM | IC50 ([1]; Table 3): > 200 µM | IC50 (Chk1; Table 3): > 200 µM

NS(=O)(=O)c1ccc(Nc2cc(Nc3cccc(Cl)c3)nc3ncnn23)cc1 [Example 35]
IC50 (PDK1 enzyme; Table 1): 48 µM | IC50 ([1]; Table 1): 1.72 µM | IC50 (Chk1; Table 1): 40.5 µM

NC(=O)COc1cccc(-c2cc(Nc3ccc(C(N)=O)cc3)nc3ncnn23)c1 [Example 157]
IC50 (PDK1 enzyme; Table 4): 4.82 µM | IC50 ([1]; Table 4): 6.56 µM | IC50 (Chk1; Table 4): 6.05 µM

CCN(CC)CCNC(=O)c1ccc(Nc2cc(-c3cccc(OCCN)c3)n3ncnc3n2)cc1 [Example 165]
IC50 (PDK1 enzyme; Table 4): 0.81 µM | IC50 ([1]; Table 4): 7.89 µM | IC50 (Chk1; Table 4): 1.4 µM

NS(=O)(=O)c1ccc(CNc2cc(OCC3CCCCC3)nc3ncnn23)cc1 [Example 57]
IC50 (PDK1 enzyme; Table 2): > 200 µM | IC50 ([1]; Table 2): 18.7 µM | IC50 (Chk1; Table 2): > 200 µM

NS(=O)(=O)c1ccc(Nc2cc(N3CCC(O)CC3)nc3ncnn23)cc1 [Example 19]
IC50 (PDK1 enzyme; Table 1): > 200 µM | IC50 ([1]; Table 1): 0.99 µM | IC50 (Chk1; Table 1): > 200 µM

CS(=O)(=O)c1ccc(Nc2cc(NC3CCCC3)nc3ncnn23)cc1 [Example 96]
IC50 (PDK1 enzyme; Table 2): > 200 µM | IC50 ([1]; Table 2): 2.23 µM | IC50 (Chk1; Table 2): > 200 µM

COc1ccc(Nc2cc(Cl)nc3ncnn23)cn1 [Example 42]
IC50 (PDK1 enzyme; Table 1): > 200 µM | IC50 ([1]; Table 1): 11.8 µM | IC50 (Chk1; Table 1): > 200 µM

NC(=O)c1ccc(Nc2cc(-c3cccc(F)c3)nc3ncnn23)cc1 [Example 45]
IC50 (PDK1 enzyme; Table 1): > 200 µM | IC50 ([1]; Table 1): 12.3 µM | IC50 (Chk1; Table 1): > 200 µM

CCN(CC)CCNC(=O)c1ccc(Nc2cc(C)n3ncnc3n2)cc1 [Example 120]
IC50 (PDK1 enzyme; Table 3): > 200 µM | IC50 ([1]; Table 3): > 200 µM | IC50 (Chk1; Table 3): 0.82 µM

CCN(CC)c1cc(Nc2ccc(S(=O)(=O)C(F)(F)F)cc2)n2ncnc2n1 [Example 70]
IC50 (PDK1 enzyme; Table 2): > 200 µM | IC50 ([1]; Table 2): 2.69 µM | IC50 (Chk1; Table 2): > 200 µM

NS(=O)(=O)c1ccc(Nc2cc(Oc3ccccc3)nc3ncnn23)cc1 [Example 13]
IC50 (PDK1 enzyme; Table 1): > 200 µM | IC50 ([1]; Table 1): 20.1 µM | IC50 (Chk1; Table 1): > 200 µM

NC(=O)c1ccc(Nc2cc(-c3cccc(F)c3)n3ncnc3n2)cc1 [Example 117]
IC50 (PDK1 enzyme; Table 3): 7.3 µM | IC50 ([1]; Table 3): > 200 µM | IC50 (Chk1; Table 3): 3.05 µM

NC(=O)Cc1ccc(Nc2cc(-c3cccc(F)c3)n3ncnc3n2)cc1 [Example 139]
IC50 (PDK1 enzyme; Table 3): 1.12 µM | IC50 ([1]; Table 3): > 200 µM | IC50 (Chk1; Table 3): 3.76 µM

Cc1cccc(-c2cc(Nc3ccc(N4CCOCC4)cc3)nc3ncnn23)c1 [Example 106]
IC50 (PDK1 enzyme; Table 3): 23.2 µM | IC50 ([1]; Table 3): > 200 µM | IC50 (Chk1; Table 3): 63.3 µM

Cc1cccc(-c2cc(Nc3ccc(N4CCN(C)CC4)cc3)nc3ncnn23)c1 [Example 109]
IC50 (PDK1 enzyme; Table 3): 36 µM | IC50 ([1]; Table 3): > 200 µM | IC50 (Chk1; Table 3): 6.7 µM

CS(=O)(=O)c1ccc(Nc2cc(NCC34CC5CC(CC(C5)C3)C4)nc3ncnn23)cc1 [Example 99]
IC50 (PDK1 enzyme; Table 2): > 200 µM | IC50 ([1]; Table 2): 25.7 µM | IC50 (Chk1; Table 2): > 200 µM

Clc1cc(NCc2ccccc2)n2ncnc2n1 [Example 6]
IC50 (PDK1 enzyme; Table 1): > 200 µM | IC50 ([1]; Table 1): 85 µM | IC50 (Chk1; Table 1): > 200 µM

NC(=O)c1cccc(Nc2cc(Cl)nc3ncnn23)c1 [Example 22]
IC50 (PDK1 enzyme; Table 1): > 200 µM | IC50 ([1]; Table 1): 36.7 µM | IC50 (Chk1; Table 1): > 200 µM

CS(=O)(=O)c1ccc(Nc2cc(NC3C4CC5CC(C4)CC3C5)nc3ncnn23)cc1 (stereo not drawn) [Example 102]
IC50 (PDK1 enzyme; Table 2): 3.55 µM | IC50 ([1]; Table 2): 10.9 µM | IC50 (Chk1; Table 2): 59.4 µM

CC(C)(C)OC(=O)N1CCC(CNc2cc(Cl)nc3ncnn23)CC1 [Example 76]
IC50 (PDK1 enzyme; Table 2): > 200 µM | IC50 ([1]; Table 2): > 200 µM | IC50 (Chk1; Table 2): > 200 µM

NS(=O)(=O)c1ccc(Nc2cc(N3CCCC3)nc3ncnn23)cc1 [Example 20]
IC50 (PDK1 enzyme; Table 1): > 200 µM | IC50 ([1]; Table 1): 3.33 µM | IC50 (Chk1; Table 1): > 200 µM

NS(=O)(=O)c1ccc(Nc2cc(NCc3ccccc3)nc3ncnn23)cc1 [Example 58]
IC50 (PDK1 enzyme; Table 2): > 200 µM | IC50 ([1]; Table 2): 13.6 µM | IC50 (Chk1; Table 2): > 200 µM

Oc1ccc(Cl)cc1Nc1cc(Cl)nc2ncnn12 [Example 32]
IC50 (PDK1 enzyme; Table 1): > 200 µM | IC50 ([1]; Table 1): 31.6 µM | IC50 (Chk1; Table 1): > 200 µM

CCNc1cc(Nc2ccc(S(C)(=O)=O)cc2)n2ncnc2n1 [Example 80]
IC50 (PDK1 enzyme; Table 2): > 200 µM | IC50 ([1]; Table 2): 13.5 µM | IC50 (Chk1; Table 2): > 200 µM

NC(=O)c1ccc(Nc2cc(-c3cccc(OCC4CCCNC4)c3)n3ncnc3n2)cc1 (stereo not drawn) [Example 148]
IC50 (PDK1 enzyme; Table 4): 10.4 µM | IC50 ([1]; Table 4): 5.38 µM | IC50 (Chk1; Table 4): 17 µM

O=C(O)c1ccc(Nc2cc(Cl)nc3ncnn23)cc1 [Example 25]
IC50 (PDK1 enzyme; Table 1): > 200 µM | IC50 ([1]; Table 1): 93.2 µM | IC50 (Chk1; Table 1): > 200 µM

Reference: patent publication US20070275961A1, “Triazolo ' 1, 5-A ! Pyrimidines and Their Use in Medicine” (VERNALIS (CAMBRIDGE) LIMITED., priority 2003, published 2007)
